Source: article PMC6148290, “Endogenous metabolites of vitamin E limit inflammation by targeting 5-lipoxygenase” (Nature Communications, 2018)

Assays:
COX-1 = target: T1, COX-1 (Homo sapiens, UniProt P23219); assay: COX-1 activity (12-HHT formation) in washed platelets; format: cell-based
T1 construct: Freshly isolated human platelets (1 × 10^8) were pre-incubated with LCMs; endogenous in cells; host or cells: washed human platelets
Description: Freshly isolated human platelets (1 × 10^8) were pre-incubated with LCMs for 5 min at room temperature. Formation of COX-1-derived 12-HHT was initiated by addition of exogenous AA (5 µM).

5-LO = target: T2, 5-LO (Homo sapiens, UniProt P09917); assay: 5-LO product formation in activated PMNL; format: cell-based; set-up: Freshly isolated PMNL (1 × 10^7); endogenous in cells; host or cells: human PMNL freshly isolated from leukocyte concentrates
T2 sequence (P09917 1-674): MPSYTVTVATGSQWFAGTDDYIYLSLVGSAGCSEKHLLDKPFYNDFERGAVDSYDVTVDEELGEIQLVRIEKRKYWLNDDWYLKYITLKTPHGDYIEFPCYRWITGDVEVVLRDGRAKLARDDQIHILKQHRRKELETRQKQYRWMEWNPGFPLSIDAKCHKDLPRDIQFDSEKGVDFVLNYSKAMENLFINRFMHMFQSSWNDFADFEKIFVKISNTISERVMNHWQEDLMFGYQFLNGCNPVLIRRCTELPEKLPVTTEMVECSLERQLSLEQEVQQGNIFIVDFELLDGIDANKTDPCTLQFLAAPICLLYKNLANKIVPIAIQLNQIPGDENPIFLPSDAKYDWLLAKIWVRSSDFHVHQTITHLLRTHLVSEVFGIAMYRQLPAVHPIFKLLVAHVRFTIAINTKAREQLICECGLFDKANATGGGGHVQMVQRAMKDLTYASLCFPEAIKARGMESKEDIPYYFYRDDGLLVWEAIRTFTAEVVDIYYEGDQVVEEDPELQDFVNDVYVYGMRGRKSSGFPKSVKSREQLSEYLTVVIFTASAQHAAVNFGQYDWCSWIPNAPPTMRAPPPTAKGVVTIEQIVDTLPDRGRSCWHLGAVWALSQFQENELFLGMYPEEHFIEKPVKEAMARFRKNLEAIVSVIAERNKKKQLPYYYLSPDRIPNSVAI
From the text: Human PMNL, monocytes, PBMC, and platelets were freshly isolated from leukocyte concentrates. The protocols for experiments with human blood and blood cells were approved by the ethical commission of the Friedrich-Schiller-University Jena. […] PMNL were recovered from the pellet after hypotonic lysis of erythrocytes. Platelets were obtained from the supernatant and washed with PBS pH 5.9/0.9% NaCl (1:1). […]

[1] = system: peripheral blood mononuclear cells; assay: Cell viability of PBMC (MTT assay); format: cell-based, human; settings: at 1 and 10 µM (one entry for both); 24 h; n.i. no inhibition
Description: The formazan product was solubilized with SDS (10% in 20 mM HCl), and absorbance was measured at 570 nm using a Multiskan Spectrum microplate reader (Thermo Fisher Scientific).

bovine COX-1 = target: T3, bovine COX-1 (Bos taurus, UniProt O62664); assay: Activity of isolated COX-1; format: biochemical
T3 construct: purchased Cayman Chemicals
T3 sequence (O62664 25-600): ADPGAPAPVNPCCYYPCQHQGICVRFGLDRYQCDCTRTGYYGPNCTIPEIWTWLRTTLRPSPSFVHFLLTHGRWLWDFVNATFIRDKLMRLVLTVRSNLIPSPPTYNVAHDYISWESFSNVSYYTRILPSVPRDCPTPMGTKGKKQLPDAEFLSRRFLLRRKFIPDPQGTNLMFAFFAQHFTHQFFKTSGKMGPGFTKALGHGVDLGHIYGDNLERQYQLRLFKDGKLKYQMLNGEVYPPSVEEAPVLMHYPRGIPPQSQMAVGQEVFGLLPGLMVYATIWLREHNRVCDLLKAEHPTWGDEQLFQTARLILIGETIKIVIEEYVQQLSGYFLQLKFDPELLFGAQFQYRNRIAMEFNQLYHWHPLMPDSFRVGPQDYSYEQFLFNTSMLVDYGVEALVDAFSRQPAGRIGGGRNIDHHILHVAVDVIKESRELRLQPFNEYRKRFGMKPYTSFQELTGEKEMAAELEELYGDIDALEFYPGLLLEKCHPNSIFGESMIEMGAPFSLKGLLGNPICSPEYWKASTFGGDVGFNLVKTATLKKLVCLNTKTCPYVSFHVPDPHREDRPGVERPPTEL
Description: Purified bovine COX-1 (Cayman Chemicals; 50 units) or human recombinant COX-2 (Cayman Chemicals; 20 units) in 100 mM Tris buffer pH 8, 5 mM glutathione, 5 µM hemoglobin, and 100 µM EDTA were pre-incubated with LCMs for 5 min at 4 °C followed by 1 min at 37 °C. Formation of COX-derived 12(S)-hydroxy-5-cis-8,10-trans-heptadecatrienoic acid (12-HHT) was initiated by addition of AA (COX-1: 5 μM; COX-2: 2 μM).

LTB4 formation = LTB4 formation in LPS/fMLP-stimulated human blood; format: cell-based; settings: 100 nM
Description: LPS-activated monocytes were treated with A23187 (2.5 µM) and AA (20 µM) to induce lipid mediator biosynthesis as described for LO product formation. Human blood was pre-incubated with vehicle (DMSO) or α-T-13′-COOH (4a, 100 nM) for 10 min, primed with LPS (1 µg/ml) for 30 min and stimulated with N-formyl-methionyl-leucyl-phenylalanine (fMLP, Sigma-Aldrich; 1 µM) for 15 min at 37 °C.

T1 sequence (P23219 24-599): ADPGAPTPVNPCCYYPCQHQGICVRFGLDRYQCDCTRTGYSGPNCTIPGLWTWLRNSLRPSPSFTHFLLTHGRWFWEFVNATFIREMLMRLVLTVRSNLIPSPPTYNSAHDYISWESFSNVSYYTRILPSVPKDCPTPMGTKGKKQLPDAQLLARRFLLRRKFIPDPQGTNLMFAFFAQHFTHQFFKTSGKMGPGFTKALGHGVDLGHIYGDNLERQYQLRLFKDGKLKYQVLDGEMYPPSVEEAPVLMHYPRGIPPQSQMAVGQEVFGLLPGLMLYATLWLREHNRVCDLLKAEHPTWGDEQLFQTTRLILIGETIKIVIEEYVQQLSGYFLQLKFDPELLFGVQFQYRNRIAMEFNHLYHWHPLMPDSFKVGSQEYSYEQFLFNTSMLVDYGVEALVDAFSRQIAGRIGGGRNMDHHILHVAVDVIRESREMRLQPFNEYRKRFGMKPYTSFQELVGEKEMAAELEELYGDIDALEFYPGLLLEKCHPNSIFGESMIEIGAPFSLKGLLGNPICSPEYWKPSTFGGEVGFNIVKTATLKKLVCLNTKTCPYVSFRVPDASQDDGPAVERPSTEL

`Cc1c(C)c2c(c(C)c1O)CC[C@@](C)(CCCC(C)CCCC(C)CCCC(C)C(=O)O)O2` (stereo partly drawn) [4a, 13-((2R)-6-hydroxy-2,5,7,8-tetramethylchroman-2-yl)-2,6,10-trimethyltridecanoic acid] was tested, and the IC50 (COX-1) was 6.9 µM, the IC50 (5-LO) was 0.08 µM and the “Cell viability/peripheral blood mononuclear cells, residual viability” value [1] was “n.i”. For the same compound, the IC50 (bovine COX-1) was greater than 10 µM and the “effect on LTB4 formation in activated human blood” value (LTB4 formation) was “inhibited”.
